Results on twelve compounds are retold here after patent publication US11465984B2, “Compound having ERK kinase inhibitory activity and use thereof” (SHANGHAI HAIHE PHARMACEUTICAL CO., LTD., priority 2017, dated 2022).

Each structure is given as a SMILES string.

For one experiment, the target named is ERK2 kinase (Homo sapiens (Human), UniProt P28482). Kind of experiment: In vitro enzyme activity assay, ERK2 kinase (Z'-LYTE). The class given is biochemical. The conditions noted are these: class symbols; read-out: ERK2 IC50. The protocol: Half inhibitory activity of the compounds of the invention against ERK2 kinase (IC50 value) was determined in this Example.
Chain of ERK2 kinase (P28482 whole entry): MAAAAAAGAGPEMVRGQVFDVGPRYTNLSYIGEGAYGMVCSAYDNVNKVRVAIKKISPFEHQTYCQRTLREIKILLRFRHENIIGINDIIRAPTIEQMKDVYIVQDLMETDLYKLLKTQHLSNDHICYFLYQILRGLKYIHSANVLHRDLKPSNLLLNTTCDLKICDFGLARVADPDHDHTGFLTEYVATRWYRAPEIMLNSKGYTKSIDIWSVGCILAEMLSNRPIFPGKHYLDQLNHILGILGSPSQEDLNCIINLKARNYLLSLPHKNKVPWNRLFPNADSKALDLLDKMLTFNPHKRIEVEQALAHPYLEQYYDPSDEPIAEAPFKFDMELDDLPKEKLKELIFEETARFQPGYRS
• Enzyme: extracellular signal-regulated kinase ERK2 kinase (PV3595, Invitrogen) • Kit: Z′-LYTE® Protein Kinase Assay Kit-Ser/Thr 3 Peptide (PV3176, Invitrogen) • Kit components: The substrate Z′-LYTE™ Ser/Thr 3 Peptide (PV3200) • The phosphorylation substrate Z′-LYTE™ Ser/Thr 3 Phospho-peptide (PV3215) • 5× kinase buffer: 250 mM HEPES (pH 7.5), 50 mM MgCl2, • 5 mM EGTA, 0.05% BRIJ-35 (PV3189, Invitrogen) • ATP (PV3227, Invitrogen) • Development Reagent A (PV3295, Invitrogen) • Development Buffer (P3127, Invitrogen) • Stop Reagent (P3094, Invitrogen) • Microplate reader: The multil-mode microplate reader PerkinElmer EnVision® • Microplate: black shallow 384-well microplate (6008269, PerkinElmer) (2). Assay Protocol:
The substrate Z′-LYTE™ Ser/Thr 3 Peptide, the phosphorylation substrate Z′-LYTE™ Ser/Thr 3 Phospho-peptide, 1× kinase buffer (5× kinase buffer was diluted with ultra pure water by five times), ATP, Development Reagent A, Development Buffer, Stop Reagent were balanced to room temperature for use. The screening concentrations for detecting the effect of the compounds of the invention on the ERK kinase activity were seven 3-fold serial dilutions starting from 1 μM (from 0.2 μM for the positive drug control) using 4% DMSO as co-solvent. 5 μL enzyme system (50 mM HEPES pH 7.5, 1 mM EGTA, 10 mM MgCl2, 0.01% Brij-35, 4 uM substrate, 0.8 ng/μL enzyme), 2.5 μL Compound, 2.5 μL 400 μM ATP were added into 384 well microplate, followed by incubation at room temperature for 60 min in the dark. After the reaction was completed, 5 μl the developing agent (Development Reagent A) diluted with the developing buffer (Development Buffer) was added to all reaction wells, followed by incubation at the room temperature for 60 min in the dark. 5 μL the terminating agent was added to each well to terminate the reaction. The fluorescence was determined using the multil-mode microplate reader PerkinElmer EnVision® (excitation wavelength 400 nm, emission wavelength 460 nm and 528 nm).
The inhibition rate of each well was calculated from 100% phosphorylation substrate well and 0% phosphorylation substrate well using the data analysis method below: phosphorylation %=1−{(emission rate×F100%−C100%)/[C0%−C100%+emission rate×(F100%−F0%)]}×100 inhibition %=100×(1−phosphorylation % of the test compound well/phosphorylation % of the 0% inhibition control) • wherein: • emission rate=fluorescence emission of the sample at 445 nm/fluorescence emission of the sample at 520 nm • F100%=the average fluorescence emission of the control well of 100% phosphorylation substrate at 520 nm • F0%=the average fluorescence emission of the control well of 0% phosphorylation substrate at 520 nm • C100%=the average fluorescence emission of the control well of 100% phosphorylation substrate at 445 nm • C0%=the average fluorescence emission of the control well of 0% phosphorylation substrate at 445 nm
Tests were carried out in duplicate. IC50 values were calculated from the inhibition of the kinase by the test compounds at a range of different concentrations.
Broadly, the IC50 is the concentration needed to halve the response being measured. For the compound `Cn1nccc1Nc1cc(-c2cc(F)c3c(c2)CCN3C(=O)Cc2ncccc2Cl)ccn1` [Example P28, 2-(3-chloropyridin-2-yl)-1-(7-fluoro-5-(2-((1-methyl-1H-pyrazol-5-yl)amino)pyridin-4-yl)indolin-1-yl)ethan-1-one], the IC50 fell in the range of 10 to 100 nM. Regarding `Cn1nccc1Nc1nccc(-c2cc(F)c3c(c2)CCN3C(=O)Cc2c(F)ccnc2Cl)n1` [Example P33, 2-(2-chloro-4-fluoropyridin-3-yl)-1-(7-fluoro-5-(2-((1-methyl-1H-pyrazol-5-yl)amino)pyrimidin-4-yl)indolin-1-yl)ethan-1-one], the IC50 was in the range of 10 to 100 nM. Regarding `O=C(Cc1cccnc1Cl)N1CCc2cc(-c3ccnc(NC4CCC(O)C4)n3)cc(F)c21` (centres unmarked) [Example P4, 2-(2-chloropyridin-3-yl)-1-(7-fluoro-5-(2-((3-hydroxylcyclopentyl)amino)pyrimidin-4-yl)indolin-1-yl)ethan-1-one], the IC50 fell in the range of 10 to 100 nM.

Consider `Cn1nccc1Nc1cc(-c2cc(F)c3c(c2)CCN3C(=O)Cc2cccnc2C2CCOCC2)ccn1` [Example P57, 1-(7-fluoro-5-(2-((1-methyl-1H-pyrazol-5-yl)amino)pyridin-4-yl)indolin-1-yl)-2-(2-(tetrahydro-2H-pyran-4-yl)pyridin-3-yl)ethan-1-one], for which the IC50 lay in the range of 100 to 1000 nM. For `Cn1nccc1Nc1nccc(-c2cc(F)c3c(c2)CCN3C(=O)Cc2cc(F)ccc2Cl)n1` [Example P38, 2-(2-chloro-5-fluorophenyl)-1-(7-fluoro-5-(2-((1-methyl-1H-pyrazol-5-yl)amino)pyrimidin-4-yl)indolin-1-yl)ethan-1-one], the IC50 fell in the range of 10 to 100 nM. For `Cn1nccc1Nc1nccc(-c2cc(F)c3c(c2)CCN3C(=O)Cc2ccccc2Cl)n1` [Example P18, 2-(2-chlorophenyl)-1-(7-fluoro-5-(2-((1-methyl-1H-pyrazol-5-yl)amino)pyrimidin-4-yl)indolin-1-yl)ethan-1-one], the IC50 was no more than 10 nM. On to `CC(CO)Nc1nccc(-c2cc(F)c3c(c2)CCN3C(=O)Cc2cccnc2Cl)n1` (centres unmarked) [Example P1, 2-(2-chloropyridin-3-yl)-1-(7-fluoro-5-(2-((1-hydroxylprop-2-yl)amino)pyrimidin-4-yl)indolin-1-yl)ethan-1-one], for which the IC50 fell in the range of 100 to 1000 nM.

As to `Cn1nccc1Nc1nccc(-c2cc(Cl)c3c(c2)CCN3C(=O)Cc2cccnc2Cl)n1` [Example P11, 1-(7-chloro-5-(2-((1-methyl-1H-pyrazol-5-yl)amino)pyrimidin-4-yl)indolin-1-yl)-2-(2-chloropyridin-3-yl)ethan-1-one], the IC50 lay within 10 to 100 nM. As for `Cn1nccc1Nc1nccc(-c2cc(F)c3c(c2)CCN3C(=O)Cc2ccncc2Cl)n1` [Example P37, 2-(3-chloropyridin-4-yl)-1-(7-fluoro-5-(2-((1-methyl-1H-pyrazol-5-yl)amino)pyrimidin-4-yl)indolin-1-yl)ethan-1-one], the IC50 lay within 10 to 100 nM. For `O=C(Cc1cccnc1Cl)N1CCc2cc(-c3ccnc(NCCO)n3)cc(F)c21` [Example P2, 2-(2-chloropyridin-3-yl)-1-(7-fluoro-5-(2-((2-hydroxylethyl)amino)pyrimidin-4-yl)indolin-1-yl)ethan-1-one], the IC50 was in the range of 10 to 100 nM. As to `Cn1nccc1Nc1nccc(-c2cc(F)c3c(c2)CCN3C(=O)Cc2cccnc2Cl)n1` [Example P10, 2-(2-chloropyridin-3-yl)-1-(7-fluoro-5-(2-((1-methyl-1H-pyrazol-5-yl)amino)pyrimidin-4-yl)indolin-1-yl)ethan-1-one], the IC50 is no more than 10 nM.

Still in this experiment, the particulars now being: read-out: IC50 against ERK2 kinase.
As to `CC1CN(C(=O)Cc2cccnc2Cl)c2c(F)cc(-c3ccnc(Nc4ccnn4C)c3)cc21` (centres unmarked) [Example P59, 2-(2-chloropyridin-3-yl)-1-(7-fluoro-3-methyl-5-(2-((1-methyl-1H-pyrazol-5-yl)amino)pyridin-4-yl)indolin-1-yl)ethan-1-one], the IC50 is 4.8 nM. As for `Cn1nccc1Nc1nccc(-c2cc(F)c3c(c2)CCN3C(=O)Cc2ccccc2Cl)n1` [Example P18, 2-(2-chlorophenyl)-1-(7-fluoro-5-(2-((1-methyl-1H-pyrazol-5-yl)amino)pyrimidin-4-yl)indolin-1-yl)ethan-1-one], the IC50 worked out at 3 nM. In the case of `Cn1nccc1Nc1nccc(-c2cc(F)c3c(c2)CCN3C(=O)Cc2cccnc2Cl)n1` [Example P10, 2-(2-chloropyridin-3-yl)-1-(7-fluoro-5-(2-((1-methyl-1H-pyrazol-5-yl)amino)pyrimidin-4-yl)indolin-1-yl)ethan-1-one], the IC50 is 6.1 nM.
